Laboratory results reported in ChEMBL document CHEMBL4665869, “New thiazolopyrimidine as anticancer agents: Synthesis, biological evaluation, DNA binding, molecular modeling and ADMET study” (Bioorg Med Chem Lett, 2020).
Values after ≈ are worked out from the molar mass of the structure shown.

Assays:
[1] = test system: BT-549; test: Growth inhibition of human BT-549 cells at 10 uM relative to control; type: functional; conditions: read-out: GI
[2] = test system: DU-145; test: Growth inhibition of human DU-145 cells at 10 uM relative to control; type: functional; conditions: read-out: GI
[3] = test system: SNB-75; test: Growth inhibition of human SNB-75 cells at 10 uM relative to control; type: functional; conditions: read-out: GI
[4] = test system: CCRF-CEM; test: Growth inhibition of human CCRF-CEM cells at 10 uM relative to control; type: functional; conditions: read-out: GI
[5] = test system: MDA-MB-231; test: Growth inhibition of human MDA-MB-231 cells at 10 uM relative to control; type: functional; conditions: read-out: GI
[6] = test system: MDA-MB-468; test: Growth inhibition of human MDA-MB-468 cells at 10 uM relative to control; type: functional; conditions: read-out: GI
[7] = test system: UACC-257; test: Growth inhibition of human UACC-257 cells at 10 uM relative to control; type: functional; conditions: read-out: GI
[8] = test system: U-251; test: Growth inhibition of human U-251 cells at 10 uM relative to control; type: functional; conditions: read-out: GI
[9] = test system: NCI-H322M; test: Growth inhibition of human NCI-H322M cells at 10 uM relative to control; type: functional; conditions: read-out: GI
[10] = test system: KM12; test: Growth inhibition of human KM12 cells at 10 uM relative to control; type: functional; conditions: read-out: GI
[11] = test system: OVCAR-8; test: Growth inhibition of human OVCAR-8 cells at 10 uM relative to control; type: functional; conditions: read-out: GI
[12] = test system: NCI/ADR-RES; test: Growth inhibition of human NCI/ADR-RES cells at 10 uM relative to control; type: functional; conditions: read-out: GI
[13] = test system: CAKI-1; test: Growth inhibition of human CAKI-1 cells at 10 uM relative to control; type: functional; conditions: read-out: GI
[14] = test system: UACC-62; test: Growth inhibition of human UACC-62 cells at 10 uM relative to control; type: functional; conditions: read-out: GI
[15] = test system: NCI-H460; test: Growth inhibition of human NCI-H460 cells at 10 uM relative to control; type: functional; conditions: read-out: GI
[16] = test system: K562; test: Growth inhibition of human K562 cells at 10 uM relative to control; type: functional; conditions: read-out: GI
[17] = test system: HOP-92; test: Growth inhibition of human HOP-92 cells at 10 uM relative to control; type: functional; conditions: read-out: GI
[18] = test system: ACHN; test: Growth inhibition of human ACHN cells at 10 uM relative to control; type: functional; conditions: read-out: GI
[19] = test system: T47D; test: Growth inhibition of human T47D cells at 10 uM relative to control; type: functional; conditions: read-out: GI
[20] = test system: SF-295; test: Growth inhibition of human SF-295 cells at 10 uM relative to control; type: functional; conditions: read-out: GI
[21] = test system: SNB-19; test: Growth inhibition of human SNB-19 cells at 10 uM relative to control; type: functional; conditions: read-out: GI
[22] = test system: HOP-62; test: Growth inhibition of human HOP-62 cells at 10 uM relative to control; type: functional; conditions: read-out: GI
[23] = test system: MDA-MB-435; test: Growth inhibition of human MDA-MB-435 cells at 10 uM relative to control; type: functional; conditions: read-out: GI
[24] = test system: SN12C; test: Growth inhibition of human SN12C cells at 10 uM relative to control; type: functional; conditions: read-out: GI
[25] = test system: SF-539; test: Growth inhibition of human SF-539 cells at 10 uM relative to control; type: functional; conditions: read-out: GI
[26] = test system: OVCAR-5; test: Growth inhibition of human OVCAR-5 cells at 10 uM relative to control; type: functional; conditions: read-out: GI
[27] = test system: M14; test: Growth inhibition of human M14 cells at 10 uM relative to control; type: functional; conditions: read-out: GI
[28] = test system: SK-OV-3; test: Growth inhibition of human SK-OV-3 cells at 10 uM relative to control; type: functional; conditions: read-out: GI
[29] = test system: SF-268; test: Growth inhibition of human SF-268 cells at 10 uM relative to control; type: functional; conditions: read-out: GI
[30] = test system: RPMI-8226; test: Growth inhibition of human RPMI-8226 cells at 10 uM relative to control; type: functional; conditions: read-out: GI
[31] = test system: SW-620; test: Growth inhibition of human SW-620 cells at 10 uM relative to control; type: functional; conditions: read-out: GI
[32] = test system: TK-10; test: Growth inhibition of human TK-10 cells at 10 uM relative to control; type: functional; conditions: read-out: GI
[33] = test system: HCC 2998; test: Growth inhibition of human HCC 2998 cells at 10 uM relative to control; type: functional; conditions: read-out: GI
[34] = test system: HT-29; test: Growth inhibition of human HT-29 cells at 10 uM relative to control; type: functional; conditions: read-out: GI
[35] = biological target: DNA; test: Displacement of methyl green from DNA (unknown origin) assessed as DNA intercalation after 24 hrs by colorimetric assay; type: nucleic-acid assay
[36] = test system: PC-3; test: Growth inhibition of human PC-3 cells at 10 uM relative to control; type: functional; conditions: read-out: GI
[37] = test system: IGROV-1; test: Growth inhibition of human IGROV-1 cells at 10 uM relative to control; type: functional; conditions: read-out: GI
[38] = test system: MCF7; test: Growth inhibition of human MCF7 cells at 10 uM relative to control; type: functional; conditions: read-out: GI
[39] = test system: UO-31; test: Growth inhibition of human UO-31 cells at 10 uM relative to control; type: functional; conditions: read-out: GI
[40] = test system: A549; test: Growth inhibition of human A549 cells at 10 uM relative to control; type: functional; conditions: read-out: GI
[41] = test system: HCT-15; test: Growth inhibition of human HCT-15 cells at 10 uM relative to control; type: functional; conditions: read-out: GI
[42] = test system: SK-MEL-5; test: Growth inhibition of human SK-MEL-5 cells at 10 uM relative to control; type: functional; conditions: read-out: GI
[43] = test system: SK-MEL-2; test: Growth inhibition of human SK-MEL-2 cells at 10 uM relative to control; type: functional; conditions: read-out: GI
[44] = test system: RXF 393; test: Growth inhibition of human RXF 393 cells at 10 uM relative to control; type: functional; conditions: read-out: GI
[45] = test system: HL-60(TB); test: Growth inhibition of human HL-60(TB) cells at 10 uM relative to control; type: functional; conditions: read-out: GI
[46] = test system: Hs-578T; test: Growth inhibition of human Hs-578T cells at 10 uM relative to control; type: functional; conditions: read-out: GI
[47] = test system: A498; test: Growth inhibition of human A498 cells at 10 uM relative to control; type: functional; conditions: read-out: GI
[48] = test system: HCT-116; test: Growth inhibition of human HCT-116 cells at 10 uM relative to control; type: functional; conditions: read-out: GI
[49] = test system: COLO 205; test: Growth inhibition of human COLO 205 cells at 10 uM relative to control; type: functional; conditions: read-out: GI
[50] = test system: SR; test: Growth inhibition of human SR cells at 10 uM relative to control; type: functional; conditions: read-out: GI
[51] = test system: OVCAR-4; test: Growth inhibition of human OVCAR-4 cells at 10 uM relative to control; type: functional; conditions: read-out: GI
[52] = test system: LOX IMVI; test: Growth inhibition of human LOX IMVI cells at 10 uM relative to control; type: functional; conditions: read-out: GI
[53] = test system: NCI-H23; test: Growth inhibition of human NCI-H23 cells at 10 uM relative to control; type: functional; conditions: read-out: GI
[54] = test system: MOLT-4; test: Growth inhibition of human MOLT-4 cells at 10 uM relative to control; type: functional; conditions: read-out: GI
[55] = test system: SK-MEL-28; test: Growth inhibition of human SK-MEL-28 cells at 10 uM relative to control; type: functional; conditions: read-out: GI
[56] = test system: NCI-H522; test: Growth inhibition of human NCI-H522 cells at 10 uM relative to control; type: functional; conditions: read-out: GI
[57] = test system: 786-0; test: Growth inhibition of human 786-0 cells at 10 uM relative to control; type: functional; conditions: read-out: GI
[58] = test system: Malme-3M; test: Growth inhibition of human Malme-3M cells at 10 uM relative to control; type: functional; conditions: read-out: GI
[59] = test system: NCI-H226; test: Growth inhibition of human NCI-H226 cells at 10 uM relative to control; type: functional; conditions: read-out: GI

CCOC(=O)C1=CSC2=NC(/C=C/c3ccc(OC)c(OC)c3)=CC(c3ccc(OC)c(OC)c3)N12 (centres undefined)
inhibition of growth at 10 µM [1]: < 10%
inhibition of growth at 10 µM [2]: < 10%
inhibition of growth at 10 µM [3]: 25.3%
inhibition of growth at 10 µM [4]: < 10%
inhibition of growth at 10 µM [5]: < 10%
inhibition of growth at 10 µM [6]: < 10%
inhibition of growth at 10 µM [7]: < 10%
inhibition of growth at 10 µM [8]: < 10%
inhibition of growth at 10 µM [9]: < 10%
inhibition of growth at 10 µM [10]: < 10%
inhibition of growth at 10 µM [11]: < 10%
inhibition of growth at 10 µM [12]: < 10%
inhibition of growth at 10 µM [13]: < 10%
inhibition of growth at 10 µM [14]: < 10%
inhibition of growth at 10 µM [15]: < 10%
inhibition of growth at 10 µM [16]: < 10%
inhibition of growth at 10 µM [17]: 39.5%
inhibition of growth at 10 µM [18]: 12.8%
inhibition of growth at 10 µM [19]: < 10%
inhibition of growth at 10 µM [20]: < 10%
inhibition of growth at 10 µM [21]: < 10%
inhibition of growth at 10 µM [22]: < 10%
inhibition of growth at 10 µM [23]: < 10%
inhibition of growth at 10 µM [24]: < 10%
inhibition of growth at 10 µM [25]: < 10%
inhibition of growth at 10 µM [26]: < 10%
inhibition of growth at 10 µM [27]: < 10%
inhibition of growth at 10 µM [28]: < 10%
inhibition of growth at 10 µM [29]: < 10%
inhibition of growth at 10 µM [30]: < 10%
inhibition of growth at 10 µM [31]: < 10%
inhibition of growth at 10 µM [32]: < 10%
inhibition of growth at 10 µM [33]: < 10%
inhibition of growth at 10 µM [34]: < 10%
IC50 [35]: 29.86 µg/mL (≈ 58.7 µM)
inhibition of growth at 10 µM [36]: 11.3%
inhibition of growth at 10 µM [37]: < 10%
inhibition of growth at 10 µM [38]: < 10%
inhibition of growth at 10 µM [39]: 20.2%
inhibition of growth at 10 µM [40]: < 10%
inhibition of growth at 10 µM [41]: < 10%
inhibition of growth at 10 µM [42]: < 10%
inhibition of growth at 10 µM [43]: < 10%
inhibition of growth at 10 µM [44]: < 10%
inhibition of growth at 10 µM [45]: < 10%
inhibition of growth at 10 µM [46]: < 10%
inhibition of growth at 10 µM [47]: < 10%
inhibition of growth at 10 µM [48]: < 10%
inhibition of growth at 10 µM [49]: < 10%
inhibition of growth at 10 µM [50]: < 10%
inhibition of growth at 10 µM [51]: < 10%
inhibition of growth at 10 µM [52]: < 10%
inhibition of growth at 10 µM [53]: < 10%
inhibition of growth at 10 µM [54]: < 10%
inhibition of growth at 10 µM [55]: < 10%
inhibition of growth at 10 µM [56]: 12%
inhibition of growth at 10 µM [57]: < 10%
inhibition of growth at 10 µM [58]: < 10%
inhibition of growth at 10 µM [59]: < 10%
